From patent publication US20250320190A1, “Novel Inhibitors of Leucine Carboxyl Methyltransferase-1 (LCMT-1) and Methods of Use Thereof” (Temple University-Of The Commonwealth System of Higher …, priority 2024, published 2025)
Like-named read-outs stand apart in the source and are kept apart here.

Key:
[1] = test system: SCC-25 cells; assay: Western blots (pMLKL, ACSL4) with and without irradiation; format: cell-based, human; settings: alone and in combination with irradiation
Protocol: (§1) To better understand cellular outcomes associated with combining LCMT-li with radiotherapy (Adjemian, S. et al., 2020, Cell Death Dis 11(11): 1003), SCC-15, SCC-25, UM-SCC-12, UM-SCC-14a and UM-SCC-49 cells were treated with LCMT-li, radiotherapy or both as described for Annexin V assays. UM-SCC-69 cells were not used for immunoblots because insufficient numbers of cells survived irradiation to obtain sufficient lysates. After 24 hours, cells were lysed in radioimmunoprecipitation assay buffer containing protease inhibitors (Boster Bio, Pleasanton, California, catalog #AR1182-1) and phosphatase inhibitors (Santa Cruz Biotechnology catalog #sc-45044 and #sc-45045). Protein concentrations were measured with a bicinchoninic acid assay (G-Biosciences, Saint Louis, Missouri). Fifty micrograms of each lysate were used for bis-tris polyacrylamide gel electrophoresis. Resolved lysates were transferred to nitrocellulose membranes. Membranes were blocked with TBS with 5% bovine serum albumin before incubation with primary antibodies.
(§2) The anti-phospho-mixed lineage kinase domain like pseudokinase (pMLKL) antibody was obtained from R&D Systems (Minneapolis, Minnesota, catalog #MAB9187-100, 1:1,000 dilution). Antibodies obtained from Proteintech (Rosemont, Illinois) included anti-MLKL (catalog #66675-1-Ig, 1:5,000 dilution) and anti-β-actin (catalog #66009-1-Ig, 1:50,000 dilution). The anti-long-chain-fatty-acid-Coenzyme A ligase 4 (ACSL4) antibody was obtained from Santa Cruz Biotechnology (Dallas, Texas, catalog #sc-365230, 1:1,000 dilution). Appropriate IR-dye secondary antibodies obtained from Jackson ImmunoResearch Laboratories (West Grove, Pennsylvania) were used (Alexa Fluor® 790-conjugated anti-mouse (catalog #115-655-146, 1:50,000 dilution), Alexa Fluor® 680-conjugated anti-mouse (catalog #115-625-146, 1:50,000 dilution), and Alexa Fluor® 680-conjugated anti-rabbit (catalog #115-625-144, 1:50,000 dilution). Band densities were normalized to β-actin, the endogenous control. Twelve replicates were used for statistical analyses.

[2] = test system: SCC-15 cells; assay: as above; format: cell-based, human; settings: alone or with irradiation
Protocol: as §1, §2

[3] = test system: UM-SCC-12 cells; assay: as above; format: cell-based, human; settings: LCMT-li alone
Protocol: as §1, §2

[4] = test system: SCC-25 cells; assay: DDR analysis (activated γ-H2AX flow cytometry); format: cell-based, human; settings: LCMT-li alone vs control cells, 24 hours
Protocol: (§3) Cells were treated with LCMT-li, radiotherapy or both as described for Annexin V assays. After 24 hours, cells were lifted with 0.25% trypsin, 2.21 mM EDTA, stained with Ghost Dye™ 710 and fixed with formaldehyde as described. Cells were washed with PBS with 1% BSA, and permeabilized with PBS with 0.1% Triton X-100 on ice for 10 minutes. Cells were pelleted and washed twice with PBS with 0.02% Triton X-100. Cells were resuspended in PBS with 1% BSA and 0.3% Tween-20, and stained with FITC-anti-activated-γ-H2AX (Biolegend, catalog #613404). Cells were pelleted and washed with PBS with 1% BSA and 0.1% sodium azide. DDR analyses were performed twice with 12 replicates, 104 cells/replicate.

[5] = test system: UM-SCC-49 cells; assay: DDR analysis (activated γ-H2AX flow cytometry); format: cell-based, human; settings: LCMT-li alone vs control cells, 24 hours
Protocol: as §3

[6] = test system: UM-SCC-14a cells; assay: DDR analysis (activated γ-H2AX flow cytometry); format: cell-based, human; settings: LCMT-li alone vs control cells, 24 hours
Protocol: as §3

[7] = test system: UM-SCC-12 cells; assay: DDR analysis (activated γ-H2AX flow cytometry); format: cell-based, human; settings: LCMT-li alone vs control cells, 24 hours
Protocol: as §3

[8] = test system: UM-SCC-69 cells; assay: DDR analysis (activated γ-H2AX flow cytometry); format: cell-based, human
Protocol: as §3

[9] = Liver microsomal stability; format: in vitro ADME
Source text: There is no cause for concern at this stage since there are multiple strategies and reagents for enhancing aqueous solubility for animal in vivo studies (Savjani, K. T., A. K. Gajjar and J. K. Savjani, 2012, ISRN Pharm 2012: 195727.). […] While target tissue exposure is dependent on free, unbound fractions in the plasma, plasma protein binding can protect compounds from hepatic metabolism. Thus, in vivo metabolism and excretion are often determined by a balance between these two properties. In vivo half-life is a complicated property impacted upon by multiple factors and is difficult to predict. […] While these numbers are somewhat low for a drug candidate, they are acceptable for proof of concept tool molecules which can be given multiple times per day and at higher doses to saturate metabolism.

half-life ([9]; human liver microsomes, read-out: Liver Microsomal Stability (t1/2) Human): 31.1 min | half-life ([9]; mouse liver microsomes, read-out: Liver Microsomal Stability (t1/2) Mouse): 17.3 min
SMILES: COC(=O)c1c(NC(=O)c2ccccc2C)sc(C(=O)Nc2cccc(C)c2)c1C [Compound 2, methyl 4-methyl-2-[(2-methylbenzoyl)amino]-5-[[(3-methylphenyl)amino]carbonyl]-3-thiophenecarboxylate]
necroptosis (pMLKL expression) [1]: increased necroptosis | necroptosis (pMLKL) and ferroptosis (ACSL4) [2]: did not induce necroptosis or ferroptosis | necroptosis (pMLKL) and ferroptosis (ACSL4) [3]: increased necroptosis and ferroptosis | activated γ-H2AX expression [4]: increased activated γ-H2AX expression | activated γ-H2AX expression [5]: decreased activated γ-H2AX expression | activated γ-H2AX expression [6]: decreased activated γ-H2AX expression | activated γ-H2AX expression [7]: decreased activated γ-H2AX expression | activated γ-H2AX expression ([8]; LCMT-li alone vs control cells, 24 hours): decreased activated γ-H2AX expression | DDR (activated γ-H2AX expression) ([8]; in the presence of irradiation): inhibited DDR as evidenced by persistent activated γ-H2AX expression
